Paper PMC6973020, “Quinoline‐Conjugated Ruthenacarboranes: Toward Hybrid Drugs with a Dual Mode of Action” (Chemmedchem, 2019)

Experiments:
LN229 cells = experiment: AnnV/PI double staining, flow cytometry, LN229; format: cell-based, human; settings: LN229, 40 μM, 72 h
Protocol: Flow cytometry. For gaining better insights into the mechanisms of action of the ruthenium complexes, MCF‐7 and LN229 cells incubated with an IC50 dose of 3 or 4, were analyzed via flow cytometry. Several staining protocols were carried out in parallel, in independent experiments: i) AnnV/PI for the detection of apoptotic cell death, ii) AO for the detection of acidic vacuoles, iii) ApoStat for checking caspase activation, iv) CFSE for detecting interference with cellular proliferation, and v) DAPI for the detection of morphological signs of apoptosis. Untreated cells or cells treated only with BSA (control) were also measured, as reference for BSA‐free and BSA‐containing drug formulations, respectively. […] Channels FL1 (green emission), FL2 (orange emission) and/or FL3 (dark red emission) were used for fluorescence detection, according to the specific staining agent. Sideward Scatter (SSC) for MCF‐7 cells treated with 4 or BSA−4 was also analyzed, with respect to the control, for detection of shifts of cell granularity. […]
FCS, 2 mM L‐glutamine, 0.01% sodium pyruvate and antibiotics, at 37 °C in a humidified atmosphere with 5% CO2. […] Cells were counted and seeded in 96‐well plates and incubated overnight, as described above. […]
Staining Protocols for Flow Cytometric Analysis. […] Finally, cells were washed in PBS, resuspended in PBS (or AnnV‐binding buffer for AnnV/PI), and analysed. […]

[1] = tested on: Human fibroblast cell line MRC‐5; experiment: MTT cell viability assay, MRC‐5; format: cell-based; settings: 72 h
Text: Thus, care must be taken when comparing their biological activities with those of our previous studies, even with the same cell line, because the covalent vs. non‐covalent combination of drugs might imply different mechanisms of action in the cell.44 Here, we studied the in vitro activity of ruthenacarborane 3, i. e. free acid, and its 8‐hydroxyquinolyl (4) and 4‐{(7‐chloroquinolin‐4‐yl)oxy}butanol‐1‐yl (5) esters, against a panel of cancer cell lines (B16 mouse melanoma, A375 human skin melanoma, MCF‐7 human breast adenocarcinoma, LN229 human glioblastoma, U251 human glioma). Human fibroblast cell line MRC‐5, murine microglial cell line BV‐2 as well as peritoneal exudate cells (Mph), were chosen as models for non‐malignant cells. […] On the other side, we wanted to assess the reproducibility of the viability data, under either controlled (with BSA) or uncontrolled (without BSA) conditions, in two sets of independent assays. […] Cells were exposed to 3–5 for 72 h, after which cell viability was determined via 3‐(4,5‐dimethylthiazol‐2‐yl)‐2,5‐diphenyltetrazolium bromide (MTT) and crystal violet (CV) assays, in parallel (Table 2). Cisplatin was also tested as reference.
Preparation of drug solutions. […] Stock solution of cisplatin was prepared in DMF (10 mM) immediately before use. A stock solution of BSA in PBS was prepared at 1.28 mM concentration, and stored at 4 °C in the dark. […] Alternatively, 3 or 4 (DMSO stock solution) were added to the BSA solution in PBS, always with a 10 : 1 molar ratio of BSA to ruthenacarborane. […]
(§1) Colorimetric assays for cellular viability. […] The absorbance was measured with an automated microplate reader at λmax 540 nm, with the reference λmax 670 nm. Untreated cells or cells treated only with BSA (control) were also measured, as reference for BSA‐free and BSA‐containing drug formulations, respectively. […] Cell viability is expressed as percentage (%) relative to control (untreated cultures).58 Experiments were run in three independent replicates. […]

[2] = tested on: A375, B16 and MCF‐7 cell lines; experiment: CV cell viability assay, summary for A375, B16 and MCF‐7; format: cell-based; settings: range over the three cell lines, 72 h
Text: Thus, care must be taken when comparing their biological activities with those of our previous studies, even with the same cell line, because the covalent vs. non‐covalent combination of drugs might imply different mechanisms of action in the cell.44 Here, we studied the in vitro activity of ruthenacarborane 3, i. e. free acid, and its 8‐hydroxyquinolyl (4) and 4‐{(7‐chloroquinolin‐4‐yl)oxy}butanol‐1‐yl (5) esters, against a panel of cancer cell lines (B16 mouse melanoma, A375 human skin melanoma, MCF‐7 human breast adenocarcinoma, LN229 human glioblastoma, U251 human glioma). Human fibroblast cell line MRC‐5, murine microglial cell line BV‐2 as well as peritoneal exudate cells (Mph), were chosen as models for non‐malignant cells. […] Cells were exposed to 3–5 for 72 h, after which cell viability was determined via 3‐(4,5‐dimethylthiazol‐2‐yl)‐2,5‐diphenyltetrazolium bromide (MTT) and crystal violet (CV) assays, in parallel (Table 2). […]
as §1

Row | Substance | early apoptotic (Ann+/PI−) cells (LN229 cells; control 0.9 %) [%] | late apoptotic (Ann+/PI+) cells (LN229 cells; control 7.4 %) [%] | IC50 [1] [µM] | IC50 [2] [µM]
1 | closo ‐[3‐(η^6‐p‐Cymene)‐1‐(quinolin‐8‐yl‐acetate)‐3,1,2‐RuC2B9H10] [Compound 4] | 9.0 | 35 | 3.9 ± 0.1 | –
2 | closo‐ [Compound 3, closo‐ [3‐(η^6‐p‐Cymene)‐1‐(CH2COOH)‐3,1,2‐RuC2B9H10]] | – | – | 44.2 ± 1.6 | 18 to 23
